# According to ChEMBL document CHEMBL1201862, “PubChem BioAssay data set” (2004):
#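 Test compounds were applied to cells in 96-well plates for 48 hours at 5 doses. Abbreviation: GI50, concentration required for 50% inhibition of growth.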 Activity calls are given as the source filed them. Rule as the data show it: active = GI50 up to about 1.1 µM and inactive = higher.
# What was measured:
# Assay in all cases: NCI anticancer screen, dose series, 48 h
# NCI-H460 = system: NCI-H460
# K562 = system: K562
# NCI-H23 = system: NCI-H23
# CCRF-CEM = system: CCRF-CEM
# OVCAR-3 = system: OVCAR-3
# NCI-H522 = system: NCI-H522
# SN12C = system: SN12C
# SK-MEL-28 = system: SK-MEL-28
# COLO 205 = system: COLO 205
# OVCAR-4 = system: OVCAR-4
# 786-0 = system: 786-0
# HCC 2998 = system: HCC 2998
# HOP-62 = system: HOP-62
# HOP-92 = system: HOP-92
# HCT-15 = system: HCT-15
SMILES,GI50 (NCI-H460),GI50 (K562),GI50 (NCI-H23),GI50 (CCRF-CEM),GI50 (OVCAR-3),GI50 (NCI-H522),GI50 (SN12C),GI50 (SK-MEL-28),GI50 (COLO 205),GI50 (OVCAR-4),GI50 (786-0),GI50 (HCC 2998),GI50 (HOP-62),GI50 (HOP-92),GI50 (HCT-15) [µM]
CNC(=O)OCc1nc(SC(C)C)n(C)c1COC(=O)NC,72.8 µM (inactive),> 69.8 µM (inactive),> 100 µM (inactive),48.5 µM (inactive),> 100 µM (inactive),58.5 µM (inactive),> 100 µM (inactive),> 100 µM (inactive),> 100 µM (inactive),> 100 µM (inactive),> 100 µM (inactive),> 100 µM (inactive),> 100 µM (inactive),> 100 µM (inactive),> 100
COc1ccc(-c2cc(O)c3cc4c(cc3n2)OCO4)c(OC)c1,40.2 µM (inactive),32 µM (inactive),70.3 µM (inactive),34.4 µM (inactive),,46.9 µM (inactive),59.6 µM (inactive),32.9 µM (inactive),46.2 µM (inactive),71.1 µM (inactive),> 100 µM (inactive),50.7 µM (inactive),73.1 µM (inactive),82 µM (inactive),38.9
O=C1CCCCC/C=C2/CC[C@H](Sc3ccccc3)[C@@H]12,94.4 µM (inactive),> 100 µM (inactive),83 µM (inactive),6.27 µM (inactive),,,> 100 µM (inactive),> 100 µM (inactive),> 100 µM (inactive),> 100 µM (inactive),> 100 µM (inactive),,37.3 µM (inactive),,> 100
CC1NOC(=O)C1/N=N/c1ccccc1Br (stereo unspecified),21.7 µM (inactive),22.9 µM (inactive),22.6 µM (inactive),25.8 µM (inactive),20.5 µM (inactive),18.5 µM (inactive),24.5 µM (inactive),31 µM (inactive),20.6 µM (inactive),39.3 µM (inactive),17.5 µM (inactive),41.2 µM (inactive),43.9 µM (inactive),24 µM (inactive),28.4
N/N=C1/C(=O)N(c2ccc(Cl)cc2)C(=O)C(=O)C1c1nc2ccccc2s1 (stereo unspecified),> 100 µM (inactive),60.3 µM (inactive),> 100 µM (inactive),74.6 µM (inactive),> 100 µM (inactive),> 100 µM (inactive),> 100 µM (inactive),> 100 µM (inactive),> 100 µM (inactive),> 100 µM (inactive),> 100 µM (inactive),> 100 µM (inactive),> 100 µM (inactive),> 100 µM (inactive),72.1
CN/N=C(/CC(=O)c1sc(-n2nc(-c3ccccc3)cc2-c2ccccc2)nc1C)C(=O)Nc1ccc(Cl)c(Cl)c1,57.3 µM (inactive),20.4 µM (inactive),23.7 µM (inactive),27.7 µM (inactive),38.7 µM (inactive),28.1 µM (inactive),66.5 µM (inactive),55.1 µM (inactive),28.9 µM (inactive),52.6 µM (inactive),39.3 µM (inactive),44.3 µM (inactive),19.4 µM (inactive),14.1 µM (inactive),31.3
IC[P+]1(c2ccccc2)CCCC1,31.9 µM (inactive),35.9 µM (inactive),39.4 µM (inactive),54.2 µM (inactive),43 µM (inactive),8.36 µM (inactive),14.3 µM (inactive),50 µM (inactive),14 µM (inactive),,> 100 µM (inactive),> 100 µM (inactive),38.2 µM (inactive),,4.15
COC(=O)C1=C(C)N(NC(N)=O)C(C)(O)C12CCOC2=O (stereo unspecified),> 100 µM (inactive),> 100 µM (inactive),> 100 µM (inactive),> 100 µM (inactive),> 100 µM (inactive),> 100 µM (inactive),> 100 µM (inactive),> 100 µM (inactive),> 100 µM (inactive),> 100 µM (inactive),> 100 µM (inactive),< 0.01 µM (active),> 100 µM (inactive),> 100 µM (inactive),> 100
COC(=O)CCc1cccnc1/C=N/O,27.4 µM (inactive),> 100 µM (inactive),> 100 µM (inactive),96.4 µM (inactive),> 100 µM (inactive),> 100 µM (inactive),> 100 µM (inactive),> 100 µM (inactive),> 100 µM (inactive),> 100 µM (inactive),> 100 µM (inactive),,> 100 µM (inactive),> 100 µM (inactive),> 100
COc1ccccc1NC(=O)C1=C(C)NC(C)=C(C(=O)Nc2ccccc2OC)C1c1ccccc1F,67.9 µM (inactive),36.2 µM (inactive),> 100 µM (inactive),54.3 µM (inactive),> 100 µM (inactive),,> 100 µM (inactive),> 100 µM (inactive),> 100 µM (inactive),> 100 µM (inactive),> 100 µM (inactive),> 100 µM (inactive),> 100 µM (inactive),79.3 µM (inactive),98.6
